The text below walks through data of patent US8022088B2, “Substituted bicyclic and tricyclic thrombin receptor antagonists” (Schering Corporation, priority 2006, dated 2011).

Structures are written as SMILES.

This test deals with T1, thrombin receptor (Homo sapiens, UniProt P25116).
T1 construct: tissue North Jersey Blood Center (East Orange, N.J.); host or cells: platelet membranes prepared from platelet concentrates
T1 sequence (P25116 22-425): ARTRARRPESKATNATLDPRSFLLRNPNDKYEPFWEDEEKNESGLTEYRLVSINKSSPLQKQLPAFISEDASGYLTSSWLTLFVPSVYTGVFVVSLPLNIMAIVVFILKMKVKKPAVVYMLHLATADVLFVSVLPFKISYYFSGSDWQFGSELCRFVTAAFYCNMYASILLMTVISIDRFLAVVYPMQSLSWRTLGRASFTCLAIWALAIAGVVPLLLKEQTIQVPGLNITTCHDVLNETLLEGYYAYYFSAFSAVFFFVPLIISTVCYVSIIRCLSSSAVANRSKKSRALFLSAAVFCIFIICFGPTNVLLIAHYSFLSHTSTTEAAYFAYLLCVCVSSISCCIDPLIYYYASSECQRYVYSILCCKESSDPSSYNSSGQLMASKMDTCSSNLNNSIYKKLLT
The test is described as follows: High throughput thrombin receptor radioligand binding assay ([3H]haTRAP, platelet membranes). The note with it: [3H]haTRAP binding to platelet membranes. The method, then:
A(pF-F)R(ChA)(hR)(I2—Y)—NH2 (1.03 mg) and 10% Pd/C (5.07 mg) were suspended in DMF (250 μl) and diisopropylethylamine (10 μl). The vessel was attached to the tritium line, frozen in liquid nitrogen and evacuated. Tritium gas (342 mCi) was then added to the flask, which was stirred at room temperature for 2 hours. At the completion of the reaction, the excess tritium was removed and the reacted peptide solution was diluted with DMF (0.5 ml) and filtered to remove the catalyst. The collected DMF solution of the crude peptide was diluted with water and freeze dried to remove the labile tritium. The solid peptide was redissolved in water and the freeze drying process repeated. The tritiated peptide ([^3H]haTRAP) was dissolved in 0.5 ml of 0.1% aqueous TFA and purified by HPLC using the following conditions: column, Vydac™ C18, 25 cm×9.4 mm I.D.; mobile phase, (A) 0.1% TFA in water, (B) 0.1% TFA in CH3CN; gradient, (A/B) from 100/0 to 40/60 over 30 min; flow rate, 5 ml/min; detection, UV at 215 nm. The radiochemical purity of [^3H]haTRAP was 99% as analyzed by HPLC. A batch of 14.9 mCi at a specific activity of 18.4 Ci/mmol was obtained.
Platelet membranes were prepared using a modification of the method of Natarajan et al. (Natarajan et al, Int. J. Peptide Protein Res. 45:145-151 (1995)) from 20 units of platelet concentrates obtained from the North Jersey Blood Center (East Orange, N.J.) within 48 hours of collection. All steps were carried out at 4° C. under approved biohazard safety conditions. Platelets were centrifuged at 100×g for 20 minutes at 4° C. to remove red cells. The supernatants were decanted and centrifuged at 3000×g for 15 minutes to pellet platelets. Platelets were re-suspended in 10 mM Tris-HCl, pH 7.5, 150 mM NaCl, 5 mM EDTA, to a total volume of 200 ml and centrifuged at 4400×g for 10 minutes. This step was repeated two additional times. Platelets were re-suspended in 5 mM Tris-HCl, pH 7.5, 5 mM EDITA to a final volume of approximately 30 ml and were homogenized with 20 strokes in a Dounce™ homogenizer. Membranes were pelleted at 41,000×g, re-suspended in 40-50 ml 20 mM Tris-HCl, pH 7.5, 1 mM EDTA, 0.1 mM dithiothreitol, and 10 ml aliquots were frozen in liquid N2 and stored at −80° C. To complete membrane preparation, aliquots were thawed, pooled, and homogenized with 5 strokes of a Dounce homogenizer. Membranes were pelleted and washed 3 times in 10 mM triethanolamine-HCl, pH 7.4, 5 mM EDTA, and re-suspended in 20-25 ml 50 mM Tris-HCl, pH 7.5, 10 mM MgCl2, 1 mM EGTA, and 1% DMSO. Aliquots of membranes were frozen in liquid N2 and stored at −80° C. Membranes were stable for at least 3 months. 20 units of platelet concentrates typically yielded 250 mg of membrane protein. Protein concentration was determined by a Lowry assay (Lowry et al., J. Biol. Chem., 193:265-275 (1951)).
Thrombin receptor antagonists were screened using a modification of the thrombin receptor radioligand binding assay of Ahn et al. (Ahn et al., Mol. Pharmacol, 51:350-356 (1997)). The assay was performed in 96 well Nunc plates (Cat. No. 269620) at a final assay volume of 200 μl. Platelet membranes and [^3H]haTRAP were diluted to 0.4 mg/ml and 22.2 nM, respectively, in binding buffer (50 mM Tris-HCl, pH 7.5, 10 mM MgCl2, 1 mM EGTA, 0.1% BSA). Stock solutions (10 mM in 100% DMSO) of test compounds were further diluted in 100% DMSO. Unless otherwise indicated, 10 μl of diluted compound solutions and 90 μl of radioligand (a final concentration of 10 nM in 5% DMSO) were added to each well, and the reaction was started by the addition of 100 μl of membranes (40 μg protein/well). […] Compounds were tested at three concentrations (0.1, 1 and 10 μM). The plates were covered and vortex-mixed gently on a Lab-Line™ Titer Plate Shaker for 1 hour at room temperature. Packard UniFilter™ GF/C filter plates were soaked for at least 1 hour in 0.1% polyethyleneimine. […]
What is called IC50 is the concentration needed to halve the response being measured. Broadly, the Ki is the equilibrium dissociation constant of an inhibitor or competing ligand from its target. Low readings indicate higher affinity, high ones lower affinity. The compound `C[C@@H]1[C@@H](C)[C@H](/C=C/c2ccc(-c3ccccc3C#N)cn2)C[C@H]2OC(=O)C[C@@H]12` [Compound 2] showed an IC50 of 16 nM and an inhibition constant Ki of 11 nM.
The like results for `N#Cc1cccc(-c2ccc(/C=C/[C@@H]3C[C@H]4OC(=O)C[C@H]4[C@@H]4CCCC[C@H]43)nc2)c1` [Compound 5] were, in that order, 6.7 nM and 4.3 nM.
Take `C[C@@H]1[C@@H](C)[C@H](/C=C/c2ccc(-c3ccccc3C#N)cn2)C[C@@H]2OC(=O)C[C@@H]12` [Compound 1]: the concentration for half-maximal inhibition (IC50) was 45 nM.
The compound `O=C1C[C@H]2[C@@H]3CCCC[C@H]3[C@H](/C=C/c3ccc(-c4cccc(F)c4)cn3)C[C@H]2O1` [Compound 3] yielded a half-inhibitory concentration (IC50) of 4.8 nM and an inhibitory constant (Ki) of 3.1 nM.
The compound `O=C1C[C@H]2[C@@H]3CCCC[C@H]3[C@H](/C=C/c3ccc(-c4cc(Cl)ccc4Cl)cn3)C[C@H]2O1` [Compound 4] gave an IC50 of 20 nM and a Ki of 13 nM.
